Experimental data reported in ChEMBL document CHEMBL1155088, “A new sesquiterpene lactone from the roots of Saussurea lappa: structure-anticancer activity study” (Bioorg Med Chem Lett, 2008).
Values after ≈ are worked out from the molar mass of the structure shown. Active and inactive are the calls of the source. The rule behind the calls is not given here.

Legend:
Type in all cases: functional, cell-based
COLO 205 = test: Cytotoxicity against human COLO205 cells after 48 hrs by MTT assay; conditions: for IC50: COLO 205, 48 h
A-431 = test: Cytotoxicity against human A431 cells after 48 hrs by MTT assay
MCF7 = test: Cytotoxicity against human MCF7 cells after 48 hrs by MTT assay; conditions: MCF7, 48 h
A549 = test: Cytotoxicity against human A549 cells after 48 hrs by MTT assay

Row | SMILES | IC50 (COLO 205) | Activity (A-431) | IC50 (MCF7) | Activity (A549) | Activity (COLO 205) | IC50 (A-431; A-431, 48 h) | IC50 (A549; A549, 48 h)
1 | COC[C@@H]1C(=O)O[C@@H]2/C=C(\C)CC/C=C(\C)CC[C@@H]12 | 220 µg/mL (≈ 832 µM) | inactive | 75 µg/mL (≈ 284 µM) | inactive |  |  | 
2 | C/C1=C\[C@H]2OC(=O)[C@@H](C)[C@@H]2CC/C(C)=C/CC1 [DIHYDRO COSTUNOLIDE] | 134 µg/mL (≈ 572 µM) | inactive | 57.9 µg/mL (≈ 247 µM) | inactive |  |  | 
3 | COC[C@@H]1C(=O)O[C@H]2[C@H]1CC[C@@]1(C)CCCC(=O)[C@H]21 |  | inactive | 103 µg/mL (≈ 388 µM) | inactive | inactive |  | 
4 | COC[C@@H]1C(=O)O[C@H]2[C@H]1CC[C@@]1(C)CCCC3(OCOO3)[C@H]21 (some centres undefined) |  | inactive | 180 µg/mL (≈ 577 µM) | inactive | inactive |  | 
5 | C=C1CCC[C@]2(C)CC[C@@H]3[C@H](OC(=O)[C@H]3COC)[C@@H]12 | 110 µg/mL (≈ 415 µM) | inactive | 88.5 µg/mL (≈ 335 µM) | inactive |  |  | 
6 | C=C1C(=O)O[C@@H]2/C=C(\C)CCC[C@H](C)CC[C@H]12 [ISODIHYDROCOSTUNOLIDE] | 27 µg/mL (≈ 115 µM) |  | 35 µg/mL (≈ 150 µM) |  |  | 107 µg/mL (≈ 457 µM) | 125 µg/mL (≈ 533 µM)
